This data set is described as follows: Surface tension of aqueous PEFA solutions, Wilhelmy plate method. Type of data set: physicochemical. The note with it: aqueous solution. How it is done: Surface Tension: Surface tensions were measured, using Wilhelmy plate method (Digital Tensiometer K10ST, KRÜSS) for different concentrations of PEFA in aqueous solution. The stabilization time was from 30 minutes in higher concentration to as long as 2 hours in lower concentration (below 2.5 mg/L). The final data was recorded when the measured surface tension became stable.

As for `CC(=O)OC[C@H]1O[C@H]2O[C@@H](C)CCCCCC/C=C\CCCCCCCC(=O)O[C@H]3[C@H](O)[C@@H](O)[C@H](O[C@@H]2[C@@H](O)[C@@H]1O)O[C@@H]3COC(C)=O` [Sophorolipid, 1′,4″-Sophorolactone 6′,6″-diacetate], the “Average area occupied by each molecule” value came out at 54.7 Å^2/molecule and the Surface excess concentration is 2.93 × 10^−6 mol/m^2. Also, for the setting “Wilhelmy plate”, the “Critical Micelle Concentration” value is reported as 15.2 mg/L, the Minimum surface tension came out at 36.8 mN/m and the “Slope of linear part for surface tension line” value is on record as −11.14 mN/m.
